Common to all, as to experiment: NCI-60 cell line screen, 48 h
Assay [1] deals with A549 NSCLC.
For assay [2], the system named is HCT-116 colon.
Assay [3] has as its system MOLT-4 leukemia.
Assay [4] deals with OVCAR-5 ovarian.
Assay [5] relates to SK-MEL-28 melanoma.
Assay [6] relates to SN12C renal.
Assay [7] deals with U251 CNS.
In assay [8] the test system is NCI/ADR-RES ovarian.
Assay [9] relates to OVCAR-4 ovarian.
Assay [10] deals with RXF 393 renal.

“And” between values parts separate entries of the source, which are not always exact repeats. Identical values can stand only once.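 Five concentrations, 48 hours, 96-well plates. GI50: concentration for 50% inhibition of growth. TGI is the concentration that stops growth completely.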 Peptide text beside a SMILES is read from it. * marks the point of attachment. X34 = O=C(c1ccc(-c2ccc(Cl)cc2Cl)o1)*

With `N#Cc1ccc([N+](=O)[O-])cc1NC(N)=S`, the TGI in assay [1], in assay [2], in assay [3], in assay [4], in assay [5] and in assay [6] was more than 100 µM each time. The same compound registered a TGI in assay [7] of more than 100 µM.

In the case of `CC(=O)OCC1=CC2OC(=O)C3=COC(OC4OC(CO)C(O)C(O)C4O)C1C32` (configuration not stated), the TGI in [1], in assay [2], in assay [8], in assay [9], in assay [4] and in assay [5] was more than 100 µM each time. The TGI in assay [6] and in assay [7] was more than 100 µM throughout.

As for `O=C1/C(=C/C=C/c2ccccc2)N=C(c2ccccc2)N1c1ccc(S(=O)(=O)Nc2nccs2)cc1`, the TGI in assay [1], in assay [2], in [3], in assay [8], in assay [9] and in assay [4] was more than 100 µM in each case. Besides, the TGI in assay [10] was 30.1 µM; in [6], more than 100 µM; in [7] it was 59.3 µM.

Take `O=c1oc2cc(O)ccc2c2oc3cc(O)ccc3c12`: the TGI was 125 µM in [1]; 70.2 µM in assay [2]; 83.3 µM in assay [3]; more than 125 µM in assay [8]; more than 125 µM in [9]; more than 125 µM in assay [4]. Further, the TGI in assay [10] was 124 µM; in [5] it was more than 125 µM; in assay [6] it was more than 88.7 µM; in assay [7], 93.5 µM.

Consider `CC1(O)C2(c3ccccc3)CCC[N+]1(C)CC2` (configuration not stated), for which the TGI in assay [2], in assay [3], in [8], in [9], in assay [4] and in assay [10] was more than 100 µM throughout. The TGI in assay [5], in [6] and in [7] was more than 100 µM in each case.

Consider `CC(=O)OCCCCN1C(=O)CSc2ccccc21`, for which the TGI in assay [1], in assay [2], in assay [3], in [9], in [4] and in assay [10] was more than 100 µM in each case. Also, the TGI in assay [5], in [6] and in assay [7] was more than 100 µM each time.

As for `CC[C@@H]1CSC(/C=C/C2OC3OC(C)(C)OC3C3OC(C)(C)OC23)=N1` (some centres not stated), the TGI in [1] was 49.6 µM; in assay [2] it was 14.2 µM; in assay [3], 26.6 µM; in assay [8], 95.7 µM; in [9], 17.7 µM; in assay [4], 22.8 µM. The TGI in assay [10] was found to be 9.59 µM; in assay [5], 34.7 µM; in [6], 23.9 µM; in [7], 26.4 µM.

Consider `CC(C)CNCCc1ccccn1`, for which the TGI in [1], in [2], in assay [8], in assay [9], in [4] and in assay [10] was more than 100 µM in each case. In addition, the TGI in assay [5], in assay [6] and in assay [7] was more than 100 µM throughout.

For `C=CCn1c(=O)c(Br)nn(CCOCP(=O)(OCC)OCC)c1=O`, the TGI in assay [1], in assay [3], in [8], in [4], in assay [10] and in assay [5] was more than 100 µM each time. Moreover, the TGI in assay [6] and in assay [7] was more than 100 µM throughout.

In the case of `CN1c2c(nc(N)[nH]c2=O)NCC1CCNc1ccc(C(=O)NC(CCC(=O)O)C(=O)O)cc1` (configuration not stated), the TGI was 2620 µM in [1]; 1390 µM in [2]; 2650 µM in assay [3]; 3810 µM in assay [8]; 2400 µM in [9]; 2880 µM in assay [4]. The TGI in assay [10] came to 2490 µM; in assay [5], 2290 µM; in assay [6], 2350 µM; in assay [7], 2080 µM.

As to `CN(C)c1ccc(C2CC(=O)CC(c3ccc(N(C)C)cc3)C23C(=O)NC(=S)NC3=O)cc1` (configuration not stated), the TGI in assay [1], in assay [2], in [3], in assay [8], in assay [9] and in assay [4] was more than 100 µM each time. For the same compound, the TGI in [10], in assay [5], in [6] and in [7] was more than 100 µM each time.

Regarding `COc1ccc(C(=O)c2nc3ccccc3nc2N2CCN(c3ccccc3)CC2)cc1OC`, the TGI in assay [1], in [2], in [3], in [8], in assay [9] and in assay [4] was more than 100 µM in each case. Besides, the TGI in [10], in assay [5] and in [7] was more than 100 µM throughout.

Regarding `Nc1nc(SCCNC(=O)CCc2ccc(O)c(I)c2)nc2c1ncn2C1OC(CO)C(O)C1O` (configuration not stated), the TGI in assay [1], in assay [2], in assay [3], in assay [9], in [4] and in [10] was more than 100 µM in each case. The TGI in [5], in assay [6] and in [7] was more than 100 µM throughout.

For `COc1cc(NC(C)=O)ccc1C(=O)N/N=C/c1ccco1`, the TGI in assay [1], in assay [2], in assay [3], in assay [8], in [9] and in assay [4] was more than 100 µM throughout. Besides, the TGI in assay [10], in assay [5] and in [6] was more than 100 µM each time.

On to `CCOc1ccccc1Nc1ccc(N)cc1S(=O)(=O)O`, for which the TGI in assay [1], in assay [2], in [3], in [8], in assay [9] and in [4] was more than 100 µM each time. Besides, the TGI in assay [10], in assay [5], in [6] and in [7] was more than 100 µM each time.

As for `COc1ccc(C(=O)CCN(C)C)c2ccccc12`, the TGI is more than 100 µM in [1]; 52.5 µM in assay [2]; 46 µM in assay [3]; more than 100 µM in assay [8]; 65.1 µM in [9]; more than 96.5 µM in assay [4]. For the same compound, the TGI came out at 41.9 µM in assay [10], 60.3 µM in assay [5], 49.1 µM in assay [6] and 35.1 µM in [7].

Take `CC[C@@]1(O)C[C@H](OC2CC(N(C)C)C(OC3CC(O)C(OC4CCC(=O)C(C)O4)C(C)O3)C(C)O2)c2c(cc3c(c2O)C(=O)c2c(O)cccc2C3=O)C1C(=O)OC` (some centres not stated): in assay [3], the GI50 is 0.00383 µM. Also, the TGI in assay [3] was 0.655 µM; in [8] it was 0.673 µM; in [9], 0.117 µM; in [4], 3.11 µM and 1.56 µM; in assay [10], 0.157 µM; in [5], 0.215 µM and 0.806 µM. In addition, the TGI in [7] was 2.72 µM and 9.24 µM.

With `CC1=C(SCCO)C(=O)c2ccccc2C1=O`, the TGI in assay [1] is 32.8 µM; in [2], 17.4 µM; in assay [3], more than 100 µM; in [8], 31.9 µM; in assay [9], 15.3 µM; in [4], 33.6 µM. The TGI in assay [10] was 26.3 µM; in [5], 25.9 µM; in [6], 29.7 µM; in [7], 26.1 µM.

As for `CC(=O)OC12CC[N+]3(C)CCCCC3C1=Nc1ccccc12` (configuration not stated), the TGI in [1], in [2], in assay [3], in [8], in [9] and in assay [4] was more than 100 µM throughout. Besides, the TGI in assay [10], in assay [5], in [6] and in assay [7] was more than 100 µM in each case.

Take `[C-]#[N+]C(=C\c1ccc(O)cc1)/C(=C/c1ccc(O)cc1)[N+]#[C-]`: the TGI is more than 69.9 µM in assay [1]; 15.8 µM in assay [2]; 7.67 µM in assay [3]; more than 24.5 µM in assay [8]; more than 100 µM in [9]; more than 31.8 µM in [4]. Also, the TGI in assay [10] is 4.46 µM; in assay [5] it was more than 22.4 µM; in [6], 6.37 µM; in assay [7] it was more than 23.7 µM.

For `O=C1CCCCN1`, the TGI in [1] is more than 1120 µM; in assay [2] it was more than 1120 µM; in assay [3], more than 1120 µM; in [8], more than 707 µM; in assay [9] it was more than 1120 µM; in [4] it was more than 1120 µM. The TGI in [10], in assay [5], in assay [6] and in [7] was more than 1120 µM each time.

With `COc1nc2ccc(CNc3ccc(C(=O)NC(CCC(=O)O)C(=O)O)cc3)cc2nc1OC` (configuration not stated), the TGI in [1], in [3], in assay [8], in [9], in assay [4] and in [10] was more than 100 µM each time. The TGI in assay [5], in assay [6] and in [7] was more than 100 µM each time.

On to `CCCCC(=O)c1c(O)ccc2c(C)cc(=O)oc12`, for which the TGI in assay [1], in [2], in [3], in assay [8], in assay [9] and in [4] was more than 100 µM throughout. In addition, the TGI in assay [10], in assay [5], in [6] and in assay [7] was more than 100 µM each time.

As to `COC(=O)C(CC(C)C)NC(=O)C(Cc1ccccc1)NC(=O)C1CCCN1C(=O)C(CO)NC(=O)c1ccc(-c2ccc(Cl)cc2Cl)o1` (configuration not stated) (X34-SPFL-OMe; configuration not given here), the TGI is 91.2 µM in [1]; 92.1 µM in [2]; 80 µM in [3]; 92.8 µM in assay [8]; more than 100 µM in assay [9]; 50.4 µM in assay [4]. In addition, the TGI was 44.7 µM in [10], more than 100 µM in assay [5], 89.9 µM in assay [6] and 55.9 µM in [7].

Consider `O=S(=O)(O)c1cc(S(=O)(=O)O)c2c(N=Nc3ccc(S(=O)(=O)O)c4ccccc34)c(O)ccc2c1`, for which the TGI in assay [1], in assay [2], in assay [3], in assay [8], in assay [9] and in assay [4] was more than 100 µM each time. The TGI in assay [10], in assay [5], in [6] and in [7] was more than 100 µM each time.

As to `COc1cc2c3c(n(CCCn4cncn4)c(=O)c2cc1OC)-c1cc2c(cc1C3=O)OCO2`, the GI50 was 16.3 µM in [1]; 0.567 µM in [2]; less than 0.01 µM in assay [3]; 1.55 µM in assay [8]; more than 100 µM in assay [9]; more than 100 µM in assay [4]. Besides, the GI50 in [10] was 11.9 µM; in [5] it was more than 100 µM; in assay [7], less than 0.0449 µM. The TGI in assay [1] was more than 100 µM; in [2], more than 100 µM; in assay [3] it was 0.242 µM; in [8], more than 100 µM; in assay [9], more than 100 µM; in [4], more than 100 µM. For the same compound, the TGI in [10] was more than 100 µM; in assay [5], more than 100 µM; in [6] it was more than 100 µM; in [7], 31.8 µM.

These data come from PubChem BioAssay (NCI).
